Our source for the inhibition values is ChEMBL document CHEMBL4177530, “Bufospirostenin A and Bufogargarizin C, Steroids with Rearranged Skeletons from the Toad Bufo bufo gargarizans” (J Nat Prod, 2017).

Experiment [1] is filed under the species Sus scrofa. In words: Inhibition of Na/K-ATPase in pig kidney microsomal membranes assessed as reduction in inorganic phosphate release from ATP at 25 uM incubated for 15 mins by spectrophotometry. It counts as cell membranes.
Experiment [2] is filed under the species Sus scrofa. The experiment in a line: Inhibition of Na/K-ATPase in pig kidney microsomal membranes assessed as reduction in inorganic phosphate release from ATP at 12.5 uM incubated for 15 mins by spectrophotometry. It counts as cell membranes.

Activity calls are given as the source filed them. The calls are words filed in the database; no cut-off is given here.

Turning to `C[C@]12CC[C@H](O)C[C@H]1CC[C@@H]1[C@@H]2CC[C@]2(C)[C@@H](c3ccc(=O)oc3)CC[C@]12O`, the inhibition in the experiment listed under Sus scrofa [1] and in the experiment filed under Sus scrofa [2] was 100% each time.
As to `C=C1CC[C@@]2(OC1)O[C@H]1C[C@H]3[C@@H]4CC=C5C[C@@H](O)C[C@H]5[C@](C)(O)[C@H]4CC[C@]3(C)[C@H]1[C@@H]2C`, the inhibition amounted to 43% in the experiment filed under Sus scrofa [1] and 21% in the experiment filed under Sus scrofa [2].
As to `C[C@]12CCC3=C(C=CC4=C(C3)[C@@H]3C[C@H](C4)O3)[C@H]1CC[C@@H]2c1ccc(=O)oc1`, the inhibition result in the experiment listed under Sus scrofa [1] and in the experiment filed under Sus scrofa [2] was “inactive” throughout.

For orientation: inhibition means the share of the control response that was lost under treatment.
